The source of these data is US11912693B2, “Compounds for modulating S1P1 activity and methods of using the same” (TREVENA, INC., priority 2017, dated 2024).

Molecules are shown by their SMILES.

Assay [1] addresses T1, human sphingosine-1-phosphate receptor 1 (S1P1) (Homo sapiens (Human), UniProt P21453). The experiment in a line: Inhibition of cAMP production (HTRF cAMP HiRange), S1P1 CHO-K1 cells. In kind it is cell-based. The following applies: for hS1P1 cAMP pEC50: inhibition of cAMP production, S1P1 CHO-K1 cells; for Emax: CHO-K1, efficacy (SPAN) normalized to fingolimod, read-out: hS1P1 cAMP SPAN. The procedure, abridged: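 CHO-K1 cells stably co-expressing human S1P1 (C-terminal Prolink tag) and EA-β-arrestin2 were grown in AssayComplete Media 6 at 37° C. and 5% CO2, plated, and incubated overnight. Agonist-driven inhibition of intracellular cAMP was read by TR-FRET with the HTRF cAMP HiRange kit on a PheraStar reader. Potency is pEC50, and efficacy (SPAN) is normalized to fingolimod.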
For orientation: Cyclic AMP is a second messenger, typically raised through Gs and lowered through Gi signalling.
Target sequence in this assay (P21453 whole entry, looked up): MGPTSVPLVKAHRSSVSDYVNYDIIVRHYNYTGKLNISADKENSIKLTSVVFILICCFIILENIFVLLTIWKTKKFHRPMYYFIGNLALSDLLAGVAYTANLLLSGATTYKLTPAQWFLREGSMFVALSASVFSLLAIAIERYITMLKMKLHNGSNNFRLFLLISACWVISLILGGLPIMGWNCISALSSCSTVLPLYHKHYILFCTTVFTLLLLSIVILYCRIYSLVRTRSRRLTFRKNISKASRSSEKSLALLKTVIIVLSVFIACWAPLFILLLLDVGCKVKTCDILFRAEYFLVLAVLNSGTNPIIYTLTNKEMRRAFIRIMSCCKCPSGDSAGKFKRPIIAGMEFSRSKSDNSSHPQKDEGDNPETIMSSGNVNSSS

In assay [2] the target is T1, human sphingosine-1-phosphate receptor 1 (S1P1). The experiment in a line: β-Arrestin2 recruitment assay (PathHunter), S1P1 CHO-K1 cells. The assay is classed as cell-based. The following applies: for hS1P1 B-arrestin2 pEC50: β-arrestin2 recruitment, S1P1 CHO-K1 cells; for Emax: CHO-K1, efficacy (SPAN) normalized to fingolimod, read-out: hS1P1 B-arrestin2 SPAN. The procedure, abridged:
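Enzyme-fragment complementation read-out: agonist-driven β-arrestin2 binding to ProLink-tagged human S1P1 in stable CHO-K1 cells restores β-galactosidase, measured 1 h at room temperature after a 60 min 37° C. compound incubation. Potency as pEC50, efficacy relative to fingolimod (SPAN).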
Target sequence in this assay (P21453 whole entry, looked up): as above
Target sequence in this assay (P32121 whole entry partner, looked up): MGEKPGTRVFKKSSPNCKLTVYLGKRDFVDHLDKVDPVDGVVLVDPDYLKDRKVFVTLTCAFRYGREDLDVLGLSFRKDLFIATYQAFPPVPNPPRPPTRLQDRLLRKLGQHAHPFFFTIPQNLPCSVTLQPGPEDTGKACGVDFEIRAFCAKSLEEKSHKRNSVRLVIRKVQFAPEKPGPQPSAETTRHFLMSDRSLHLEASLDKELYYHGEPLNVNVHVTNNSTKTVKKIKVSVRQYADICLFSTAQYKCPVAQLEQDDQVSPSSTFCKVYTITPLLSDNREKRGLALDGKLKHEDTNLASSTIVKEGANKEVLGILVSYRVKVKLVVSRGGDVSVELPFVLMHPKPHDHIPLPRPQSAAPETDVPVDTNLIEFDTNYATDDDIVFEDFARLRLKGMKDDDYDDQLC

For `Cc1ccccc1-c1csc(-c2cnc3c(ccn3C(C)C)c2)n1` [Compound 407, 2-(1-isopropylpyrrolo[2,3-b]pyridin-5-yl)-4-(o-tolyl)thiazole], the “hS1P1 cAMP pEC50” value in assay [1] is recorded as less than 6.5. Further, the “hS1P1 B-arrestin2 pEC50” value in assay [2] is less than 5.

In the case of `CC(C)n1ccc2cc(-c3nc(-c4ccccc4C(F)(F)F)cs3)cnc21` [Compound 408, 2-(1-isopropylpyrrolo[2,3-b]pyridin-5-yl)-4-[2-(trifluoromethyl)phenyl]thiazole], the “hS1P1 cAMP pEC50” value in assay [1] is on record as less than 6.5. Besides, the “hS1P1 B-arrestin2 pEC50” value in assay [2] was less than 5.

For `Cc1ccccc1-c1csc(-c2ccc3c(ccn3C(C)C)n2)n1` [Compound 409, 2-(1-isopropylpyrrolo[3,2-b]pyridin-5-yl)-4-(o-tolyl)thiazole], the “hS1P1 cAMP pEC50” value in assay [1] is less than 6.5. Besides, the “hS1P1 B-arrestin2 pEC50” value in assay [2] is less than 5.

Regarding `COc1cccc(-c2csc(-c3ccc4c(ccn4C(C)C)n3)n2)c1` [Compound 410, 2-(1-isopropylpyrrolo[3,2-b]pyridin-5-yl)-4-(3-methoxyphenyl)thiazole], in assay [1], the “hS1P1 cAMP pEC50” value was less than 6.5. In addition, the “hS1P1 B-arrestin2 pEC50” value in assay [2] is on record as less than 5.

In the case of `COc1ccccc1-c1csc(-c2ccc3c(ccn3C(C)C)n2)n1` [Compound 411, 2-(1-isopropyl-1H-pyrrolo[3,2-b]pyridin-5-yl)-4-(2-methoxyphenyl)thiazole], the “hS1P1 cAMP pEC50” value in assay [1] is on record as less than 6.5. In assay [2], the “hS1P1 B-arrestin2 pEC50” value is reported as less than 5.

For `CC(C)n1ccc2nc(-c3nc(-c4ccccc4Br)cs3)ccc21` [Compound 412, 4-(2-bromophenyl)-2-(1-isopropyl-1H-pyrrolo[3,2-b]pyridin-5-yl)thiazole], in assay [1], the “hS1P1 cAMP pEC50” value is given as less than 6.5. Further, the “hS1P1 B-arrestin2 pEC50” value in assay [2] is less than 5.

As to `CC(C)n1nnc2cc(-c3nc(-c4ccccc4Br)no3)cnc21` [Compound 413, 3-(2-bromophenyl)-5-[3-(propan-2-yl)-3H-[1,2,3]triazolo[4,5-b]pyridin-6-yl]-1,2,4-oxadiazole], the “hS1P1 cAMP pEC50” value in assay [1] is recorded as more than 6.5. For the same compound, in assay [2], the “hS1P1 B-arrestin2 pEC50” value was more than 5.

As for `Cc1ccncc1-c1noc(-c2cnc3c(c2)nnn3C(C)C)n1` [Compound 414, 4-methyl-3-{5-[3-(propan-2-yl)-3H-[1,2,3]triazolo[4,5-b]pyridin-6-yl]-1,2,4-oxadiazol-3-yl}pyridine], in assay [1], the “hS1P1 cAMP pEC50” value is more than 6.5. In assay [2], the “hS1P1 B-arrestin2 pEC50” value is less than 5.

For `CCC1(CC)CC(=O)c2cc(-c3nc(-c4ccc5c(c4)CC(=O)N5)no3)ccc2O1` [Compound 416, 5-(5-(2,2-diethyl-4-oxochroman-6-yl)-1,2,4-oxadiazol-3-yl)indolin-2-one], in assay [1], the “hS1P1 cAMP pEC50” value is more than 6.5. Further, the “hS1P1 B-arrestin2 pEC50” value in assay [2] is on record as more than 5.

Consider `Cc1cccc2oc(-c3ccc4c(c3)nnn4C(C)C)nc12` [Compound 418, 2-(1-isopropyl-1H-benzo[d][1,2,3]triazol-5-yl)-4-methylbenzo[d]oxazole], for which, in assay [1], the Emax is more than 75% and the “hS1P1 cAMP pEC50” value is reported as more than 6.5. In assay [2], the Emax is more than 75% and the “hS1P1 B-arrestin2 pEC50” value is more than 5.

Consider `Cc1ccc2oc(-c3ccc4c(c3)nnn4C(C)C)nc2c1` [Compound 419, 2-(1-isopropyl-1H-benzo[d][1,2,3]triazol-5-yl)-5-methylbenzo[d]oxazole], for which, in assay [1], the Emax is more than 75% and the “hS1P1 cAMP pEC50” value is more than 6.5. Also, in assay [2], the Emax is less than 75% and the “hS1P1 B-arrestin2 pEC50” value was more than 5.

On to `Cc1ccc2nc(-c3ccc4c(c3)nnn4C(C)C)oc2c1` [Compound 420, 2-(1-isopropyl-1H-benzo[d][1,2,3]triazol-5-yl)-6-methylbenzo[d]oxazole], for which, in assay [1], the Emax was more than 75% and the “hS1P1 cAMP pEC50” value is on record as more than 6.5. In assay [2], the Emax was more than 75% and the “hS1P1 B-arrestin2 pEC50” value is reported as less than 5.

As for `Cc1cccc2nc(-c3ccc4c(c3)nnn4C(C)C)oc12` [Compound 421, 2-(1-isopropyl-1H-benzo[d][1,2,3]triazol-5-yl)-7-methylbenzo[d]oxazole], in assay [1], the Emax is more than 75% and the “hS1P1 cAMP pEC50” value is recorded as less than 6.5. In assay [2], the Emax is less than 75% and the “hS1P1 B-arrestin2 pEC50” value is on record as less than 5.

Consider `COc1cccc2oc(-c3ccc4c(c3)nnn4C(C)C)nc12` [Compound 424, 2-(1-isopropyl-1H-benzo[d][1,2,3]triazol-5-yl)-4-methoxybenzo[d]oxazole], for which, in assay [1], the Emax was more than 75% and the “hS1P1 cAMP pEC50” value is listed as more than 6.5. Also, in assay [2], the Emax was more than 75% and the “hS1P1 B-arrestin2 pEC50” value was less than 5.

Consider `COc1ccc2nc(-c3ccc4c(c3)nnn4C(C)C)oc2c1` [Compound 426, 2-(1-isopropyl-1H-benzo[d][1,2,3]triazol-5-yl)-6-methoxybenzo[d]oxazole], for which, in assay [1], the Emax is more than 75% and the “hS1P1 cAMP pEC50” value is recorded as more than 6.5. Moreover, in assay [2], the Emax is more than 75% and the “hS1P1 B-arrestin2 pEC50” value is less than 5.

As for `CC(C)n1nnc2cc(-c3nc4c(Cl)cccc4o3)ccc21` [Compound 427, 4-chloro-2-(1-isopropyl-1H-benzo[d][1,2,3]triazol-5-yl)benzo[d]oxazole], in assay [1], the Emax was more than 75% and the “hS1P1 cAMP pEC50” value is reported as less than 6.5. Also, in assay [2], the Emax was more than 75% and the “hS1P1 B-arrestin2 pEC50” value is listed as less than 5.

Take `CC(C)n1nnc2cc(-c3nc4c(Br)cccc4o3)ccc21` [Compound 428, 4-bromo-2-(1-isopropylbenzotriazol-5-yl)-1,3-benzoxazole]: in assay [1], the Emax was more than 75% and the “hS1P1 cAMP pEC50” value is on record as less than 6.5. In addition, in assay [2], the Emax was more than 75% and the “hS1P1 B-arrestin2 pEC50” value was less than 5.

As for `CC(C)n1nnc2cc(-c3nc4cccc(Br)c4o3)ccc21` [Compound 429, 7-bromo-2-(1-isopropyl-1H-benzo[d][1,2,3]triazol-5-yl)benzo[d]oxazole], in assay [1], the “hS1P1 cAMP pEC50” value was less than 6.5. In addition, the “hS1P1 B-arrestin2 pEC50” value in assay [2] is reported as less than 5.

Take `CCC1(CC)C/C(=N/O)c2cc(-c3nc(-c4cccnc4)no3)ccc2O1` [Compound 430, N-[(4Z)-2,2-diethyl-6-[3-(pyridin-3-yl)-1,2,4-oxadiazol-5-yl]-3,4-dihydro-2H-1-benzopyran-4-ylidene]hydroxylamine]: the “hS1P1 cAMP pEC50” value in assay [1] is less than 6.5. Besides, the “hS1P1 B-arrestin2 pEC50” value in assay [2] was less than 5.

On to `CCC1(CC)C/C(=N\O)c2cc(-c3nc(-c4cccnc4)no3)ccc2O1` [Compound 431, N-[(4E)-2,2-diethyl-6-[3-(pyridin-3-yl)-1,2,4-oxadiazol-5-yl]-3,4-dihydro-2H-1-benzopyran-4-ylidene]hydroxylamine], for which, in assay [1], the “hS1P1 cAMP pEC50” value is listed as less than 6.5. In addition, the “hS1P1 B-arrestin2 pEC50” value in assay [2] is less than 5.

Turning to `CC(C)n1nnc2cc(-c3nc(-c4ccccc4C(F)(F)F)co3)ccc21` [Compound 432, 1-(propan-2-yl)-5-{4-[2-(trifluoromethyl)phenyl]-1,3-oxazol-2-yl}-1H-1,2,3-benzotriazole], in assay [1], the Emax was more than 75% and the “hS1P1 cAMP pEC50” value is given as more than 6.5. Further, in assay [2], the Emax was more than 75% and the “hS1P1 B-arrestin2 pEC50” value is more than 5.

For `Cc1ccccc1-c1coc(-c2ccc3c(c2)nnn3C(C)C)n1` [Compound 433, 5-[4-(2-methylphenyl)-1,3-oxazol-2-yl]-1-(propan-2-yl)-1H-1,2,3-benzotriazole], in assay [1], the Emax is more than 75% and the “hS1P1 cAMP pEC50” value is listed as more than 6.5. Also, in assay [2], the Emax was more than 75% and the “hS1P1 B-arrestin2 pEC50” value is on record as more than 5.

Take `CC(C)n1nnc2cc(-c3nc4c(o3)CCCc3ccccc3-4)ccc21` [Compound 434, 4-[1-(propan-2-yl)-1H-1,2,3-benzotriazol-5-yl]-5-oxa-3-azatricyclo[8.4.0.0^2,6]tetradeca-1(14),2(6),3,10,12-pentaene]: in assay [1], the Emax is less than 75% and the “hS1P1 cAMP pEC50” value is given as less than 6.5. Further, in assay [2], the Emax was more than 75% and the “hS1P1 B-arrestin2 pEC50” value was less than 5.

As to `COc1cc(C)c2nc(-c3ccc4c(c3)nnn4C(C)C)oc2c1` [Compound 436, 2-(1-isopropyl-1H-benzo[d][1,2,3]triazol-5-yl)-6-methoxy-4-methylbenzo[d]oxazole], in assay [1], the Emax is more than 75% and the “hS1P1 cAMP pEC50” value is more than 6.5. Besides, in assay [2], the Emax was more than 75% and the “hS1P1 B-arrestin2 pEC50” value is listed as less than 5.

Regarding `Cc1ccc2oc(-c3ccc4c(c3)nnn4CC(C)C)nc2c1` [Compound 437, 2-(1-isobutyl-1H-benzo[d][1,2,3]triazol-5-yl)-5-methylbenzo[d]oxazole], in assay [1], the Emax was more than 75% and the “hS1P1 cAMP pEC50” value is more than 6.5. In assay [2], the Emax is less than 75% and the “hS1P1 B-arrestin2 pEC50” value is recorded as more than 5.

With `CC(C)n1nnc2cc(-c3nc(-c4ccccc4N)co3)ccc21` [Compound 438, 2-{2-[1-(propan-2-yl)-1H-1,2,3-benzotriazol-5-yl]-1,3-oxazol-4-yl}aniline], in assay [1], the Emax is more than 75% and the “hS1P1 cAMP pEC50” value is given as more than 6.5. Also, in assay [2], the Emax was more than 75% and the “hS1P1 B-arrestin2 pEC50” value is more than 5.

`Cc1ccncc1-c1noc(-c2ccc3c(c2)nnn3C2CCOCC2)n1` [Compound 439, 5-[3-(4-methylpyridin-3-yl)-1,2,4-oxadiazol-5-yl]-1-(oxan-4-yl)-1H-1,2,3-benzotriazole]: in assay [1], the Emax is more than 75% and the “hS1P1 cAMP pEC50” value is given as less than 6.5. For the same compound, in assay [2], the Emax was more than 75% and the “hS1P1 B-arrestin2 pEC50” value is recorded as less than 5.
